Results reported in patent US9200046B2, “Reporter system for high throughput screening of compounds and uses thereof” (priority 2011, dated 2015).
Where a name gives a salt, the structure may show the parent alone. Read-outs that look alike come from different tables or passages of the source.

Target: Nrf2-Keap1 complex (Homo sapiens, UniProt Q14145)
Assay: cell-based
Type: cell-based
Settings: for activation at 16 µM / activation at 32 µM: 3 h; for activation at 16 µM: read-out: Activation 100 nL; for activation at 32 µM: read-out: Activation 200 nL
[1] = Table 2, 100 nL compound, screen run at 16 and 32 μM, 3 hr
[2] = Table 2, 200 nL compound, screen run at 16 and 32 μM, 3 hr
[3] = Table 1A, 100 nL compound, screen run at 16 and 32 μM, 3 hr
[4] = Table 1A, 200 nL compound, screen run at 16 and 32 μM, 3 hr

Sequence of Nrf2-Keap1 complex (Q14145 whole entry, one chain of several): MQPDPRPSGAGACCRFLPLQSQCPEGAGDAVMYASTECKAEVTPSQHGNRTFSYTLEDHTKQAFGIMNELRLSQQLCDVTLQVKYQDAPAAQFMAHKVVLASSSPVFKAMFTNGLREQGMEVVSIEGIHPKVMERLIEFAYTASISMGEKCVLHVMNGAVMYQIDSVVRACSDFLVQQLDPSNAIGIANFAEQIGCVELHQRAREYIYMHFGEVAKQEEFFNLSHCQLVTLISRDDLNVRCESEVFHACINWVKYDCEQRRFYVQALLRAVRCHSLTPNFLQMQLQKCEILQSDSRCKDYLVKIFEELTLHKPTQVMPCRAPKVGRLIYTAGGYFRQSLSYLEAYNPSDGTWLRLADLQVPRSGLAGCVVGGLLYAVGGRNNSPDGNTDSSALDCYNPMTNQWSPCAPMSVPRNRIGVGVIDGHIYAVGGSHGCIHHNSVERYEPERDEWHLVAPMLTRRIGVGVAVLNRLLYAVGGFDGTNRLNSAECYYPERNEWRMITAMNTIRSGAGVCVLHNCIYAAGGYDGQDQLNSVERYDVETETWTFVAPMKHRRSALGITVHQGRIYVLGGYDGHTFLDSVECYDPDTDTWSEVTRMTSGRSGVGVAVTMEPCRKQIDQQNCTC

Compound | activation at 16 µM [%] | activation at 32 µM [%] | 100 nL (luminescence) [1] | 200 nL (luminescence) [2] | further results
CC1(C)C2(Cl)C(Cl)C(Cl)C(Cl)(C(Cl)Cl)C1(Cl)C2Cl (stereo not shown) [STROBANE] | 388 | 235 | 5556 | 5836 | –
COc1cc([C@@H]2c3cc4c(cc3[C@@H](O)[C@H]3COC(=O)[C@H]23)OCO4)cc(OC)c1O [4′-DEMETHYLEPIPODOPHYLLOTOXIN] | – | – | – | – | 100 nL (luminescence) [3]: 3188; 200 nL (luminescence) [4]: 2844
CC(C)=CCc1c2c(c(O)c3c(=O)c(O)c(-c4ccccc4)oc13)C=CC(C)(C)O2 [SERICETIN] | 263 | 20 | 2672 | 800 | –
CCOP(=S)(OCC)Oc1nc(Cl)c(Cl)cc1Cl [CHLORPYRIFOS] | 90 | 55 | 1572 | 1704 | –
NC(=O)c1ccc(N)nc1 [6-AMINONICOTINAMIDE] | 26 | 1 | – | – | 100 nL (luminescence) [3]: 756; 200 nL (luminescence) [4]: 344
COc1cc(O)c2c(=O)c(O)c(-c3ccc(O)c(O)c3)oc2c1 [RHAMNETIN] | 138 | 47 | 2216 | 1536 | –
CC(=O)Oc1cc2c(cc1OC(C)=O)[C@@H]1c3ccc(OC(C)=O)c(OC(C)=O)c3OC[C@]1(OC(C)=O)C2 [HAEMATOXYLINPENTAACETATE] | – | – | 1040 | 1304 | Activation 100 nL: 50%; Activation 200 nL: 37%
O=C1C=CC(=O)c2c(O)cccc21 [JUGLONE] | 58 | 95 | – | – | –
COc1c(O)cc2c(-c3ccccc3)cc(=O)oc2c1OC [KUHLMANNIN] | 26 | 33 | 596 | 1104 | –
CCCSc1ccc2nc(NC(=O)OC)[nH]c2c1 [ALBENDAZOLE, reference compound] | 191 | 272 | – | – | 100 nL (luminescence): 4200; 200 nL (luminescence): 5292
NCCCCNCCCN [SPERMIDINETRIHYDROCHLORIDE] | 72 | 22 | 1000 | 860 | –
C=C1CC[C@H]2O[C@]2(C)CC[C@@H]2[C@@H]1CC2(C)C [CARYLOPHYLLENEOXIDE] | – | – | 874 | 488 | Activation 100 nL: 38%; Activation 200 nL: 2%
COc1cc(/C=C/CO)ccc1O [CONIFERYLALCOHOL] | 125 | 79 | 2032 | 2264 | –
CC(=O)Oc1ccc(Cl)c2cccnc12 [CHLOROACETOXYQUINOLINE] | 60 | 37 | – | – | Neh2-luc reporter activation: 60%
O=C(/C=C/c1ccc(O)cc1)c1ccc(O)cc1O [ISOLIQUIRITIGENIN] | 268 | 134 | – | – | 100 nL (luminescence): 4452; 200 nL (luminescence): 2364
O=C1OC(=O)[C@H]2[C@@H]1[C@@H]1CC[C@H]2O1 [NORCANTHARIDIN] | – | – | 756 | 572 | Activation 100 nL: 45%; Activation 200 nL: 10%
CCCCCCCCCCCCCC(=O)O[C@@H]1[C@@H](C)[C@@]2(O)[C@@H](C=C(CO)C[C@]3(O)C(=O)C(C)=C[C@@H]23)[C@@H]2C(C)(C)[C@]12OC(C)=O [PHORBOLMYRISTATEACETATE, reference compound] | 47 | 16 | 776 | 712 | –
COC(=O)NC(=S)Nc1ccccc1NC(=S)NC(=O)OC | – | – | 712 | 836 | Activation 100 nL: 40%; Activation 200 nL: 21%
C=C(CC)C(=O)c1ccc(OCC(=O)O)c(Cl)c1Cl [reference compound] | 139 | 156 | 2088 | 3604 | –
CC1=C2C(=CO[C@H](C)[C@H]2C)C(O)=C(C(=O)O)C1=O [CITRININ] | 219 | 217 | – | – | –
O=C(CCBr)N1CCN(C(=O)CCBr)CC1 [PIPOBROMAN, reference compound] | 79 | 185 | – | – | 100 nL (luminescence): 1976; 200 nL (luminescence): 3732
COc1cc(OC)c2c(=O)c(O)c(-c3ccc(OC)c(OC)c3)oc2c1 | – | – | 760 | 644 | Activation 100 nL: 29%; Activation 200 nL: 8%
CC(C)=CCC1=C(O)C(=O)c2ccccc2C1=O [LAPACHOL] | 47 | 24 | – | – | –
O=C1CC(c2ccc(O)cc2)Oc2ccccc21 (stereo not shown) [4′-HYDROXYFLAVANONE] | 158 | 75 | 1752 | 2088 | –
COc1ccc(C(=O)c2ccccc2)c(O)c1O | – | – | 780 | 1212 | Activation 100 nL: 47%; Activation 200 nL: 37%
COc1ccc2c(c1)OC/C(=C/c1ccc(OC)c(OC)c1)C2=O [SAPPANONEATRIMETHYLETHER] | 246 | 93 | 3652 | 2586 | –
Nc1ncnc2c1ncn2[C@H]1C[C@H](O)[C@@H](CO)O1 [DEOXYADENOSINE] | 32 | -3 | – | – | 100 nL (luminescence): 788; 200 nL (luminescence): 390
CC(=O)O[C@H]1CCC2(C)C3=C(CCC2C1(C)C)[C@@]1(C)CC[C@@H](C(C)CCC=C(C)C)[C@]1(C)CC3 (stereo partly shown) [EUPHOLACETATE] | – | – | 1710 | 2020 | Activation 100 nL: 89%; Activation 200 nL: 111%
